Measured values taken from US12415803B2, “Fused imidazopyridines as reversible inhibitors of Brutons Tyrosine Kinase (BTK)” (Merck Patent GmbH, priority 2018, dated 2025).

Legend:
[1] = biological target: full-length human BTK (Homo sapiens (Human), UniProt Q06187); assay: BTK IC50 Enzyme Assay (microfluidic off-chip mobility shift kinase assay); format: biochemical; conditions: Btk Enzymatic IC50 Assay, 90 min at 27 C;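 note: Read-out separates phosphorylated peptide product from substrate by their charge-to-mass difference, with IC50 fitted from log inhibitor concentration against percent enzyme activity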
Sequence of full-length human BTK (Q06187 whole entry): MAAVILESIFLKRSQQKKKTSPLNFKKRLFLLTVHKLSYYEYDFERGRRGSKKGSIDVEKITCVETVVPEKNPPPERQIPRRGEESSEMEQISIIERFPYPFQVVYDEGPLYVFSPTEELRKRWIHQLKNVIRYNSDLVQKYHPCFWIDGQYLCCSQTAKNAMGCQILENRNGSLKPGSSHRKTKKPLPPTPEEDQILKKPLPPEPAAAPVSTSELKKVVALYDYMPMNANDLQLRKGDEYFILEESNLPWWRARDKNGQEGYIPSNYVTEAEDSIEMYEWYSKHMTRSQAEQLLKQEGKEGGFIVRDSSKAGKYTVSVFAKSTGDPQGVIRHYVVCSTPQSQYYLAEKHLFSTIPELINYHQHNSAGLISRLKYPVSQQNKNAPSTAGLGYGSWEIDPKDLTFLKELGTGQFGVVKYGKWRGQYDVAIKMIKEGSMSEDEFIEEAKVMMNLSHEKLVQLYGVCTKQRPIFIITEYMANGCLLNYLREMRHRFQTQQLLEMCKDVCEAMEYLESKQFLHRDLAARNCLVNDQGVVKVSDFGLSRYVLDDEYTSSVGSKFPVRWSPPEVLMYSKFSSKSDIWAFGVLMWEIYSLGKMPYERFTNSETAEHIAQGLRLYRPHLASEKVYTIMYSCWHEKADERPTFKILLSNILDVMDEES

[2] = biological target: T1, Btk (Homo sapiens (Human), UniProt Q06187); assay: Btk PBMC IC50 Cell Assay (anti-IgM-induced CD69 expression on B cells); format: cell-based; conditions: anti-IgM-induced CD69 expression on CD19 positive cells in human PBMCs;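 note: freshly isolated human PBMCs, IC50 from concentration-response of the share of CD19+ cells expressing CD69 after anti-IgM BCR stimulation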
T1 sequence (Q06187 whole entry): as above

[3] = biological target: T1, Btk; assay: Time Dependent Human Whole Blood IC50 Assay; format: cell-based; conditions: read-out: Assay C (IC50)

| SMILES | IC50 [1] [nM] | IC50 [2] [nM] | IC50 [3] [nM] |
| --- | --- | --- | --- |
| CCc1cc(-c2nc3c(-c4ccc5c(c4)CCCC5NC(=O)c4nc(C(C)(C)C)no4)ccnc3[nH]2)nn1C (stereo not drawn) [Compound 108, 3-tert-Butyl-[1,2,4]oxadiazole-5-carboxylic acid {6-[2-(5-ethyl-1-methyl-1H-pyrazol-3-yl)-3H-imidazo[4,5-b]pyridin-7-yl]-1,2,3,4-tetrahydro-naphthalen-1-yl}-amide] | < 1 | 10 to 100 | 10 to 100 |
| Cc1nn(C)c(C)c1-c1nc2c(-c3ccc4c(c3)CCCCC4NC(=O)c3nnc(C(C)(C)C)o3)ccnc2[nH]1 (stereo not drawn) [Compound 116, 5-tert-Butyl-[1,3,4]oxadiazole-2-carboxylic acid {2-[2-(1,3,5-trimethyl-1H-pyrazol-4-yl)-3H-imidazo[4,5-b]pyridin-7-yl]-6,7,8,9-tetrahydro-5H-benzocyclohepten-5-yl}-amide] | 1 to 10 | 1 to 10 | 10 to 100 |
| Cc1c(-c2nc3c(-c4ccc5c(c4)CCCCC5NC(=O)c4nnc(C(C)(C)C)o4)ccnc3[nH]2)cnn1C1CCOCC1 (stereo not drawn) [Compound 120, 5-tert-Butyl-[1,3,4]oxadiazole-2-carboxylic acid (2-{2-[5-methyl-1-(tetrahydro-pyran-4-yl)-1H-pyrazol-4-yl]-3H-imidazo[4,5-b]pyridin-7-yl}-6,7,8,9-tetrahydro-5H-benzocyclohepten-5-yl)-amide] | < 1 | 1 to 10 | 1 to 10 |
| Cc1nn(C)c(C)c1-c1nc2c(-c3ccc4c(c3)CCCC[C@H]4NC(=O)c3nnc(C(C)(C)C)o3)ccnc2[nH]1 [Compound 121, 5-tert-Butyl-[1,3,4]oxadiazole-2-carboxylic acid {(R)-2-[2-(1,3,5-trimethyl-1H-pyrazol-4-yl)-3H-imidazo[4,5-b]pyridin-7-yl]-6,7,8,9-tetrahydro-5H-benzocyclohepten-5-yl}-amide] | < 1 | 1 to 10 | 10 to 100 |
| Cc1nn(C)c(C)c1-c1nc2c(-c3ccc4c(c3)CCCC[C@H]4NC(=O)c3nc(C4(C)CC4)no3)ccnc2[nH]1 [Compound 123, 3-(1-Methyl-cyclopropyl)-[1,2,4]oxadiazole-5-carboxylic acid {(R)-2-[2-(1,3,5-trimethyl-1H-pyrazol-4-yl)-3H-imidazo[4,5-b]pyridin-7-yl]-6,7,8,9-tetrahydro-5H-benzocyclohepten-5-yl}-amide] | < 1 | 1 to 10 | 1 to 10 |

Next, values leading:

| IC50 [1] [nM] | IC50 [2] [nM] | IC50 [3] [nM] | SMILES |
| --- | --- | --- | --- |
| < 1 | 1 to 10 | 10 to 100 | CC(C)n1cc(-c2nc3c(-c4ccc5c(c4)CCCC[C@H]5NC(=O)c4cc(C(C)(C)C)on4)ccnc3[nH]2)cn1 [Compound 92] |
| < 1 | 10 to 100 | 10 to 100 | Cc1cc(-c2nc3c(-c4ccc5c(c4)CCCC5NC(=O)c4nc(C(C)(C)C)no4)ccnc3[nH]2)nn1C (stereo not drawn) [Compound 107, 3-tert-Butyl-[1,2,4]oxadiazole-5-carboxylic acid {6-[2-(1,5-dimethyl-1H-pyrazol-3-yl)-3H-imidazo[4,5-b]pyridin-7-yl]-1,2,3,4-tetrahydro-naphthalen-1-yl}-amide] |
| 1 to 10 | 1 to 10 | > 100 | Cc1c(-c2nc3c(-c4ccc5c(c4)CCCC5NC(=O)c4nc(C(C)(C)C)no4)ccnc3[nH]2)cnn1C (stereo not drawn) [Compound 111, 3-tert-Butyl-[1,2,4]oxadiazole-5-carboxylic acid {6-[2-(1,5-dimethyl-1H-pyrazol-4-yl)-3H-imidazo[4,5-b]pyridin-7-yl]-1,2,3,4-tetrahydro-naphthalen-1-yl}-amide] |
| < 1 | 1 to 10 | 1 to 10 | Cc1nn(C(C)C)cc1-c1nc2c(-c3ccc4c(c3)CCCCC4NC(=O)c3nnc(C(C)(C)C)o3)ccnc2[nH]1 (stereo not drawn) [Compound 118, 5-tert-Butyl-[1,3,4]oxadiazole-2-carboxylic acid {2-[2-(1-isopropyl-3-methyl-1H-pyrazol-4-yl)-3H-imidazo[4,5-b]pyridin-7-yl]-6,7,8,9-tetrahydro-5H-benzocyclohepten-5-yl}-amide] |
